Test results taken from ChEMBL document CHEMBL5376006, “Discovery of a Hidden Pocket beneath the NES Groove by Novel Noncovalent CRM1 Inhibitors” (J Med Chem, 2023).
Calls of active or inactive are those of the source. No cut-off for these calls is given here.

How the values were obtained:
[1] = target: T1, Exportin-1 (Homo sapiens, UniProt O14980); test: Inhibition of CRM1 (unknown origin) binding to GST-tagged NES PKI assessed as CRM1/NES band ratio incubated for 1.5 hrs by Coomassie brilliant blue staining based pull-down assay (reference value: 1.00); parameters: concentration or dose not given beside the values
[2] = target: T1, Exportin-1; test: Inhibition of CRM1 (unknown origin) binding to GST-tagged NES PKI assessed as CRM1/NES band ratio at 20 uM incubated for 1.5 hrs by Coomassie brilliant blue staining based pull-down assay
[3] = system: HeLa; test: Antiproliferative activity against human HeLa cells assessed as inhibition of cell growth at 20 uM incubated for 72 hrs by SRB assay; type: functional, cell-based
[4] = target: T1, Exportin-1; test: Inhibition of CRM1 (unknown origin) binding to GST-tagged NES PKI at 100 uM incubated for 1.5 hrs by Coomassie brilliant blue staining based pull-down assay
[5] = target: T1, Exportin-1; test: Inhibition of CRM1 cargo nuclear export in human MCF7 cells at 50 uM incubated for 4 hrs by confocal microscopic analysis; type: cell-based
[6] = target: T1, Exportin-1; test: Inhibition of GFP-fused CRM1 cargo nuclear export in human HeLa cells at 200 uM incubated for 4 hrs by confocal microscopic analysis; type: cell-based

T1 sequence (O14980 whole entry): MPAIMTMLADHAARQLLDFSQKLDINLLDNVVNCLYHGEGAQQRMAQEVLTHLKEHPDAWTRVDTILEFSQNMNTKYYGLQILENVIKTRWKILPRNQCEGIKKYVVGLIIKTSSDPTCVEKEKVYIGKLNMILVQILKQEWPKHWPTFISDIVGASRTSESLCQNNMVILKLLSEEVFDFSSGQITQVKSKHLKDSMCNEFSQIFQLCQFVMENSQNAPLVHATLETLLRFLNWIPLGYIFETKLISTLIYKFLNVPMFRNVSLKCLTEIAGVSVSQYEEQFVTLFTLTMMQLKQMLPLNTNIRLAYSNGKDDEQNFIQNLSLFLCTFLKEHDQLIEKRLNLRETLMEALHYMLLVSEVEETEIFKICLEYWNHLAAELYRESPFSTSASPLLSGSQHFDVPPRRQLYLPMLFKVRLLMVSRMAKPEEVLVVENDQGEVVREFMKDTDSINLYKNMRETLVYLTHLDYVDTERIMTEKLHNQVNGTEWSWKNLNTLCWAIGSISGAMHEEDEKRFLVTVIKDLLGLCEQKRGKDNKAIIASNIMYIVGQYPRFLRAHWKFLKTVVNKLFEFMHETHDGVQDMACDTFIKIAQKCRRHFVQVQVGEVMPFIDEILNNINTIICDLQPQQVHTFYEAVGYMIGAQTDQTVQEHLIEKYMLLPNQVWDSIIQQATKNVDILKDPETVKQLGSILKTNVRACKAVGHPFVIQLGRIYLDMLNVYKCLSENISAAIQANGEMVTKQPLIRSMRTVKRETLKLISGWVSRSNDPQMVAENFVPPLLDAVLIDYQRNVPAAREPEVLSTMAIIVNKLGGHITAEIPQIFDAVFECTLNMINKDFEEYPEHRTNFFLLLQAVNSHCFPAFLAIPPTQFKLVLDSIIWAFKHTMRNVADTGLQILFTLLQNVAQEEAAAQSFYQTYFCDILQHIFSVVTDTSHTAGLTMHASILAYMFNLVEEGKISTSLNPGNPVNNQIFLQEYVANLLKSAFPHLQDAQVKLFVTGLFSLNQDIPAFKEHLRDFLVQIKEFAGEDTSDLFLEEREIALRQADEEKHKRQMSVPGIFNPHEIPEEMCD

`Cc1cccc(S(=O)(=O)Nc2cc(C(=O)O)ccc2N2CCN(c3ccc(F)cc3)CC2)c1` showed a Ratio [1] of 0.84.

`Cc1ccc(Cl)cc1N1CCN(c2ccc(C(=O)O)cc2NC(=O)c2ccc(Br)cc2)CC1` was tested, and the Ratio [2] was 0.24 and the Activity [3] was “Active”.

With `Cc1ccc(C)c(N2CCN(c3ccc(C(=O)O)cc3NC(=O)c3ccccc3C)CC2)c1` the Ratio [1] was 1.09.

For `COC(=O)c1ccc(N2CCN(c3cccc(C(F)(F)F)c3)CC2)c(NC(=O)c2ccc(Br)cc2)c1`, the inhibition [4] was “inactive”.

`O=C(O)c1ccc(N2CCCN(c3ccc(Cl)nn3)CC2)c(NC(=O)c2ccccc2)c1` was tested, and the Ratio [1] was 0.8.

In the case of `Cc1cccc(N2CCN(c3ccc(C(=O)O)cc3NC(=O)c3ccc(F)cc3)CC2C)c1` (centres undefined), the Ratio [1] is reported as 0.87.

`O=C(O)c1ccc(N2CCN(c3cccc(F)c3)CC2)c(NC(=O)c2ccc(Cl)cc2)c1` was tested, and the Ratio [1] was 0.89.

With `Cc1ccc(C)c(S(=O)(=O)Nc2cc(C(=O)O)ccc2N2CCN(c3ccccc3F)CC2)c1` the Ratio [1] was 0.95.

Molecule `Cc1cccc(C(=O)Nc2cc(C(=O)O)ccc2N2CCN(c3cccc(C)c3)C(C)C2)c1` (centres undefined) has a Ratio [1] of 0.76.

For `COC(=O)c1ccc(N2CCN(c3cc(C(F)(F)F)ccc3C(F)(F)F)CC2)c(NC(=O)c2ccc(Cl)cc2)c1`, the inhibition [5] was “inactive” and the inhibition [4] was “inactive”.

`COC(=O)c1ccc(N2CCN(c3cc(Cl)ccc3C)CC2)c(NC(=O)c2ccc(Br)cc2)c1` was tested, and the inhibition [4] was “inactive”.

For `Cc1ccc(Cl)cc1N1CCN(c2ccc(C(=O)O)cc2NC(=O)c2ccc(C(F)(F)F)cc2)CC1`, the Ratio [2] was 0.35 and the Activity [3] was “Active”.

With `O=C(O)c1ccc(N2CCN(c3cccc(Cl)c3)CC2)c(NS(=O)(=O)c2cccc(F)c2)c1` the inhibition [6] was “inactive” and the Ratio [1] was 0.43.

Molecule `O=C(O)c1ccc(N2CCN(c3ccccc3F)CC2)c(NC(=O)c2ccc(Br)cc2)c1` has a Ratio [1] of 0.68.

With `O=C(O)c1ccc(N2CCN(c3cc(Cl)ccc3Cl)CC2)c(NC(=O)c2ccc(Cl)cc2)c1` the Ratio [2] was 0.32 and the Activity [3] was “Active”.

`COC(=O)c1ccc(N2CCN(c3cc(Cl)ccc3C)CC2)c(NC(=O)c2ccc(C(F)(F)F)cc2)c1` was tested, and the inhibition [4] was “inactive”.

`Cc1ccc(Cl)cc1N1CCN(c2ccc(C(=O)O)cc2NC(=O)c2ccc(Cl)cc2)CC1` was tested, and the Ratio [2] was 0.26 and the Activity [3] was “Active”.

With `O=C(O)c1ccc(N2CCN(c3cccc(C(F)(F)F)c3)CC2)c(NC(=O)c2ccc(Br)cc2)c1` the Ratio [2] was 0.29 and the Activity [3] was “Active”.

In the case of `COc1ccc(Cl)cc1N1CCN(c2ccc(C(=O)O)cc2NC(=O)c2ccc(Cl)cc2)CC1`, the Ratio [2] is reported as 0.85 and the Activity [3] is reported as “Active”.

With `O=C(O)c1ccc(N2CCN(c3cccc(C(F)(F)F)c3)CC2)c(NC(=O)c2ccc(F)cc2)c1` the inhibition [6] was “inactive”, the inhibition [4] was “Active” and the Ratio [1] was 0.28.

For `Cc1cccc(C(=O)Nc2cc(C(=O)O)ccc2N2CCC(CCN3CCCCC3)CC2)c1`, the Ratio [1] was 0.81.

For `O=C(O)c1ccc(N2CCN(c3ccccn3)CC2)c(NC(=O)c2ccc(Cl)cc2)c1`, the Ratio [1] was 0.85.

`Cc1ccc(Cl)cc1N1CCN(c2ccc(C(=O)O)cc2NC(=O)c2ccc(F)cc2)CC1` was tested, and the inhibition [6] was “inactive” and the Ratio [1] was 0.18.

With `Cc1ccc(C)c(S(=O)(=O)Nc2cc(C(=O)O)ccc2N2CCN(c3ccc(F)cc3)CC2)c1` the Ratio [1] was 0.96.

Molecule `Cc1cccc(N2CCN(c3ccc(C(=O)O)cc3NC(=O)c3ccccc3)CC2C)c1` (centres undefined) has a Ratio [1] of 0.81.

In the case of `O=C(O)c1ccc(N2CCN(c3ccc(F)cc3)CC2)c(NS(=O)(=O)c2cc(F)ccc2F)c1`, the Ratio [1] is reported as 0.83.

Molecule `O=C(O)c1ccc(N2CCC(N3CCCCC3)CC2)c(NC(=O)c2ccc(F)cc2)c1` has a Ratio [1] of 0.83.

`COC(=O)c1ccc(N2CCN(c3cc(C(F)(F)F)ccc3Cl)CC2)c(NC(=O)c2ccc(Br)cc2)c1` was tested, and the inhibition [4] was “inactive”.

Work on `O=C(O)c1ccc(N2CCN(c3ccc(F)cc3)CC2)c(NC(=O)c2ccc(F)cc2)c1` yielded a Ratio [1] of 1.15.

Molecule `O=C(O)c1ccc(N2CCN(C3CCCCC3)CC2)c(NC(=O)c2ccc(F)cc2)c1` has a Ratio [1] of 0.88.

For `COC(=O)c1ccc(N2CCN(c3cc(C(F)(F)F)ccc3C(F)(F)F)CC2)c(NC(=O)c2ccc(Br)cc2)c1`, the inhibition [5] was “inactive” and the inhibition [4] was “inactive”.

With `O=C(O)c1ccc(N2CCN(CC(=O)N3CCCC3)CC2)c(NC(=O)c2ccccc2)c1` the Ratio [1] was 1.08.

Work on `O=C(O)c1ccc(N2CCN(c3ccccn3)CC2)c(NC(=O)c2cccc(Cl)c2)c1` yielded a Ratio [1] of 0.72.

With `COC(=O)c1ccc(N2CCN(c3cc(C(F)(F)F)ccc3C)CC2)c(NC(=O)c2ccc(Cl)cc2)c1` the inhibition [4] was “inactive”.

In the case of `Cc1cccc(S(=O)(=O)Nc2cc(C(=O)O)ccc2N2CCN(c3ccc(Cl)cc3)CC2)c1`, the Ratio [1] is reported as 1.07.

Work on `O=C(O)c1ccc(N2CCC(N3CCCCC3)CC2)c(NC(=O)c2cccc(Cl)c2)c1` yielded a Ratio [1] of 0.91.

In the case of `Cc1ccc(C(F)(F)F)cc1N1CCN(c2ccc(C(=O)O)cc2NC(=O)c2ccc(Cl)cc2)CC1`, the Ratio [2] is reported as 0.2 and the Activity [3] is reported as “Active”.

In the case of `O=C(O)c1ccc(N2CCN(c3cc(C(F)(F)F)ccc3Cl)CC2)c(NC(=O)c2ccc(Br)cc2)c1`, the Ratio [2] is reported as 0.15 and the Activity [3] is reported as “Active”.

In the case of `COC(=O)c1ccc(N2CCN(c3cc(Cl)ccc3C)CC2)c(NC(=O)c2ccc(Cl)cc2)c1`, the inhibition [4] is reported as “inactive”.

`COC(=O)c1ccc(N2CCN(c3ccccc3C(F)(F)F)CC2)c(NC(=O)c2ccc(Br)cc2)c1` was tested, and the inhibition [4] was “inactive”.

`O=C(O)c1ccc(N2CCN(c3ccc(F)cc3)CC2)c(NS(=O)(=O)c2ccc(F)c(F)c2)c1` gave a Ratio [1] of 0.88.

`O=C(O)c1ccc(N2CCN(c3ccccc3C(F)(F)F)CC2)c(NC(=O)c2ccc(Br)cc2)c1` was tested, and the Ratio [2] was 0.28 and the Activity [3] was “Active”.

For `COC(=O)c1ccc(N2CCN(c3cc(C(F)(F)F)cc(C(F)(F)F)c3)CC2)c(NC(=O)c2ccc(Br)cc2)c1`, the inhibition [5] was “inactive” and the inhibition [4] was “inactive”.

With `Cc1cccc(C(=O)Nc2cc(C(=O)O)ccc2N2CCC(N3CCCCC3)CC2)c1` the Ratio [1] was 0.81.

With `COC(=O)c1ccc(N2CCN(c3cc(Cl)ccc3Cl)CC2)c(NC(=O)c2ccc(Cl)cc2)c1` the inhibition [4] was “inactive”.

Molecule `O=C(O)c1ccc(N2CCN(c3ccc(F)cc3)CC2)c(NS(=O)(=O)c2cccc(F)c2)c1` has a Ratio [1] of 0.85.

In the case of `COc1ccccc1N1CCN(c2ccc(C(=O)O)cc2NC(=O)c2ccc(Cl)cc2)CC1`, the Ratio [1] is reported as 0.88.

`O=C(O)c1ccc(N2CCN(Cc3cccc(F)c3)CC2)c(NC(=O)c2ccccc2)c1` was tested, and the Ratio [1] was 0.72.

In the case of `COC(=O)c1ccc(N2CCN(c3cc(C)ccc3C)CC2)c(NC(=O)c2ccc(Cl)cc2)c1`, the inhibition [4] is reported as “inactive”.

Molecule `O=C(O)c1ccc(N2CCN(c3ccc(F)cc3)CC2)c(NC(=O)c2ccc(Br)cc2)c1` has a Ratio [1] of 1.24.

Molecule `Cc1ccc(C)c(N2CCN(c3ccc(C(=O)O)cc3NC(=O)c3ccc(F)cc3)CC2)c1` has a Ratio [1] of 0.82.

Molecule `Cc1cccc(C(=O)Nc2cc(C(=O)O)ccc2N2CCN(c3ccccc3F)CC2)c1` has a Ratio [1] of 1.13.

`COC(=O)c1ccc(N2CCN(c3cc(Cl)ccc3OC)CC2)c(NC(=O)c2ccc(Cl)cc2)c1` was tested, and the inhibition [4] was “inactive”.
